Values after ≈ are worked out from the molar mass of the structure shown.
settings: buffer; pH 7.4; 6.0 h; 150.0 µM

solubility kinetic	Compound
> 65 µg/mL	C=C1c2cccc(O)c2C(O)=C2C(=O)[C@]3(O)C(O)=C(C(N)=O)C(=O)[C@@H](N(C)C)[C@@H]3[C@@H](O)[C@H]12
35.9 µg/mL (≈ 106 µM)	CC(C)CNc1ccnc(NCc2csc(-c3ccccc3)n2)n1
< 1 µg/mL	N#Cc1cccc(Nc2ncc(-c3cccc4ccccc34)o2)c1
27.7 µg/mL (≈ 66.9 µM)	CC(C)c1ccc(CC(=O)N2CCCc3ncc(C(=O)Nc4cccnc4)cc32)cc1
< 1 µg/mL	O=C(NC1CCCc2c1[nH]c1c(Cl)cccc21)c1ccc2c(c1)OCO2 (configuration not stated)
2.08 µg/mL (≈ 4.72 µM)	COc1cccc(CNc2ccc(S(=O)(=O)Nc3nc4ccccc4s3)cc2)c1O
11.4 µg/mL (≈ 27.9 µM)	C[S+](=O)([O-])c1ccc(-c2nc(C(=O)NCc3cccnc3)n3ccccc23)cc1
1.94 µg/mL (≈ 4.8 µM)	CNc1ccc(Br)cc(C(=O)/C=C/c2ccc(OC)cc2OC)c1=O
28.1 µg/mL (≈ 70.4 µM)	COc1cc(-c2ccnc3c2c(C)nn3-c2ccc(C(F)(F)F)cc2)ccc1O
< 1 µg/mL	Cc1c(C(=O)NN2CCCCC2)nn(-c2ccc(Cl)cc2Cl)c1-c1ccc(Cl)cc1
12.2 µg/mL (≈ 33.5 µM)	COc1ccc(OC)c(-c2nc3c(C#N)c[nH]n3c2NC2CCCCC2)c1
7 µg/mL (≈ 17.7 µM)	COc1ccnc(NC(=S)N2CCN(c3ccccc3C(F)(F)F)CC2)c1
> 53 µg/mL	O=S(=O)(Nc1nccs1)c1ccc(NCc2cccc(O)c2)cc1
4.49 µg/mL (≈ 9.54 µM)	O=C(NCCc1ccccc1)C1CCN(c2nc(-c3ccc(Br)cc3)cs2)CC1
< 1 µg/mL	O=C1CCc2ccc(OCCCCN3CCN(c4cccc(Cl)c4Cl)CC3)cc2N1
24.2 µg/mL (≈ 62.1 µM)	COc1ccc(-c2cc3nccn3c(Nc3ncccc3C(N)=O)n2)cc1OC
> 42 µg/mL	CCOc1ccc(CNc2ccc3c(c2)ncn3C)cc1
> 43 µg/mL	OCc1ccc(-c2ccc(-c3ccc(CO)s3)o2)s1
> 69 µg/mL	O=C(NCCCNc1nc(Nc2cccc(CN3CCOCC3)c2)ncc1C1CC1)C1CCC1
> 87 µg/mL	CCN(CCCOc1ccc2c(Nc3cc(CC(=O)Nc4cccc(F)c4)[nH]n3)ncnc2c1)CCOP(=O)(O)O
> 49 µg/mL	CN(C(=O)CSc1nc2c(c(=O)[nH]1)CCCC2)c1ccccc1
< 1 µg/mL	Fc1cc(Nc2nc(-c3ccncc3)nc3ccccc23)ccc1-n1cncn1
2.64 µg/mL (≈ 7.65 µM)	Cc1ccc(C(=O)Nc2nc3nc(-c4ccccc4)cc(=O)n3[nH]2)cc1
1.27 µg/mL (≈ 3.85 µM)	Cn1nnnc1Sc1ncnc2scc(Br)c12

solubility kinetic	Compound
4.06 µg/mL (≈ 8.7 µM)	COc1ccc(NC(=O)c2[nH]c(C)c(C(C)=O)c2C)cc1S(=O)(=O)Nc1ccc(C#N)cc1
30 µg/mL (≈ 103 µM)	Cc1ccc(CNCc2cn[nH]c2-c2ccc(C)cc2)cc1
< 1 µg/mL	Cc1cnc(-c2ccccc2C(F)F)nc1NCc1ccc(-n2ccnn2)cc1
32.7 µg/mL (≈ 80.1 µM)	O=C(O)c1cccc(-n2cccc2/C=C2/NC(=O)N(c3cccc(Cl)c3)C2=O)c1
< 1 µg/mL	Cc1ccc(-c2cc(C(=O)Nc3cccc(S(N)(=O)=O)c3)c3ccccc3n2)cc1C
73 µg/mL (≈ 118 µM)	CC(C)N(CCCNC(=O)Nc1ccc(C(C)(C)C)cc1)C[C@H]1O[C@@H](n2cc(Br)c3c(N)ncnc32)[C@H](O)[C@@H]1O
> 51 µg/mL	Cc1ccc(-n2ncc3c(Nc4cccc(C(=O)O)c4)ncnc32)cc1
44.6 µg/mL (≈ 93.9 µM)	CC[C@H]1CN2CCC3CC(OC)C(OC)CC3[C@@H]2C[C@@H]1C[C@H]1NCCC2=C1CC(OC)=C(O)C2 (some centres not stated)
< 1 µg/mL	CCc1ccccc1Nc1ncnc2c1cnn2-c1ccc(Cl)cc1
1.22 µg/mL (≈ 4.27 µM)	Fc1ccc(Nc2ccnc(-c3ccncc3)n2)cc1F
5.31 µg/mL (≈ 16 µM)	NC(=O)C1CCN(c2ncc(-c3ccc4c(c3)OCO4)s2)CC1
1.1 µg/mL (≈ 3.15 µM)	O=C(Nc1nc(-c2ccccn2)cs1)c1cccc(-n2cnnn2)c1
< 1 µg/mL	Fc1ccc(Nc2nc(-c3ccnc(C(F)(F)F)c3)nc3ccccc23)cc1F
> 58 µg/mL	COc1cccc(O)c1CNc1ccc(S(=O)(=O)Nc2nccs2)cc1
5.01 µg/mL (≈ 13.2 µM)	CC(=O)NC1CCN(c2nc(-c3ccc(Br)cc3)cs2)CC1
6.07 µg/mL (≈ 13 µM)	COc1cccc(CNc2ccc(S(=O)(=O)Nc3ncc(-c4ccccc4)s3)cc2)c1O
40.8 µg/mL (≈ 122 µM)	O=C(NC1CCCc2c1cnn2-c1ccc(O)cc1)c1ccccn1 (configuration not stated)
25.2 µg/mL (≈ 53.3 µM)	O=[S+]([O-])(Nc1ccc(N2CCNCC2)cc1)c1ccc(NCc2ccc(Cl)cc2O)cc1
18.5 µg/mL (≈ 61.4 µM)	OCc1cccc(-c2cc(-c3cccnc3)c3cncn3c2)c1
7.28 µg/mL (≈ 29.3 µM)	C=C1C(=O)O[C@@H]2[C@H]3O[C@]3(C)CC/C=C(\C)CC[C@@H]12
> 59 µg/mL	Cc1cnc(-c2ccccc2C2COC2)nc1NCc1ccc(-n2ccnn2)cc1
17.9 µg/mL (≈ 84.6 µM)	Nc1cc2nc3ccccc3oc-2cc1=O
> 46 µg/mL	COc1ccc(-c2c(-c3cc(C(=O)O)ccn3)ncn2C)cc1
< 1 µg/mL	Fc1cnc(-c2ccccc2C(F)F)nc1NCc1ccc(-c2cccnc2)cc1

solubility kinetic	Compound
< 1 µg/mL	O=C1CCCC2=C1C1(CCSC1)N=C(Nc1nc3ccccc3o1)N2 (configuration not stated)
> 100 µg/mL	CC(=O)N1CCN(c2ccc(OCc3nn(C)c(C)c3-c3cccc4c(CCCOc5cccc6ccccc56)c(C(=O)O)n(Cc5cccnc5)c34)cc2)CC1
> 50 µg/mL	Clc1ccc(C2(c3ccc(-c4cn[nH]c4)cc3)CCNCC2)cc1
< 1 µg/mL	Fc1cc(Nc2nc(-c3ccncc3)nc3ccccc23)ccc1-c1cccnc1
2 µg/mL (≈ 3.93 µM)	CCOC(=O)N1CCc2c(sc(NCc3ccc(N(C)C)cc3)c2C(=O)Nc2ccc(OC)cc2)C1
< 1 µg/mL	Cc1ccc(-c2cc(C(=O)NCc3ccc(S(N)(=O)=O)cc3)c3ccccc3n2)cc1C
> 49 µg/mL	CCN(CCN(C)C)C(=O)C1CCN(S(=O)(=O)c2c(C)noc2/C=C/c2ccccc2F)CC1
< 1 µg/mL	CCN(CC)C(=O)c1coc(COc2ccc3c(c2)C(c2cccc(F)c2)N(C(=O)C(C)C)CC3)n1 (configuration not stated)
23.3 µg/mL (≈ 57.1 µM)	CC(=O)c1c(C)[nH]c(C(=O)Nc2cccc([S+](=O)([O-])N3CC[C@@H](F)C3)c2)c1C
0.487 µg/mL (≈ 0.925 µM)	Cc1ccc(S(=O)(=O)Nc2cnccc2C(=O)Nc2nc(-c3ccc(-c4ccccc4)cc3)cs2)cc1
27.9 µg/mL (≈ 62.3 µM)	Cc1ccc(C)c(CN2CCC(CNC(=O)Nc3ccc(Br)cc3F)CC2)c1
> 68 µg/mL	C[C@@H]1C(=O)O[C@H]2[C@H]1CC[C@@]1(C)Cc3sc(NS(=O)(=O)Cc4ccccc4)nc3[C@@H](C)[C@H]21
< 1 µg/mL	O=C(NC1CCCc2c1[nH]c1ccc(Cl)cc21)c1ccncc1 (configuration not stated)
< 1 µg/mL	CCOc1ccc(-c2nnc(SCC(=O)NCc3ccccc3Cl)o2)cc1
41.7 µg/mL (≈ 121 µM)	CC(C)Oc1cccc(-c2csc(N3CCC(C(N)=O)CC3)n2)c1
19.6 µg/mL (≈ 60.2 µM)	COc1c(O)ccc2c1CN1CCc3cc4c(cc3[C@@H]1C2)OCO4
8.86 µg/mL (≈ 22.8 µM)	Oc1ccc(-c2nc(C3CC3)nc3c2CCN(Cc2ccc(F)cc2)CC3)cc1
3.08 µg/mL (≈ 7.59 µM)	Cc1cc(C)nc(NC(=S)N2CCN(c3ccc(Cl)cc3[N+](=O)[O-])CC2)c1
3.62 µg/mL (≈ 7.2 µM)	O=C(c1cccc(F)c1)N1CCC2(CCN(Cc3cc(C(F)(F)F)cc(C(F)(F)F)c3)CC2)CC1
< 1 µg/mL	CNC(=O)c1cc(Oc2ccc(NC(=O)Nc3ccc(Cl)c(C(F)(F)F)c3)c(F)c2)ccn1
17.5 µg/mL (≈ 46.4 µM)	O=C(Cc1c[nH]c2ncc(-c3ccc(Cl)cc3)cc12)NCc1cccnc1
2.88 µg/mL (≈ 7.06 µM)	CCOc1ccc(CCNC(=O)c2ccnn2Cc2cccc(C)c2)cc1OCC
< 1 µg/mL	Cc1cc(Br)ccc1NC(=O)C(NS(=O)(=O)c1cccs1)c1ccccc1 (configuration not stated)
1.32 µg/mL (≈ 1.83 µM)	CN([C@@H](Cc1ccc(OS(=O)(=O)c2cccc3cnccc23)cc1)C(=O)N1CCN(c2ccccc2)CC1)S(=O)(=O)c1cccc2cnccc12

solubility kinetic	Compound
< 1 µg/mL	CC(C)(C)C1CCc2c(sc(NC(=O)c3ccncc3)c2C(N)=O)C1 (configuration not stated)
4.33 µg/mL (≈ 10.1 µM)	Cc1cc(NC(=S)N2CCN(c3cccc(C(F)(F)F)c3)CC2)nc2ccccc12
> 48 µg/mL	Cc1cc(C)nc(NC(=S)N2CCN(c3ccncc3)CC2)c1
< 1 µg/mL	CC(C)(C)c1ccc(-c2csc(N3CCC(C(N)=O)CC3)n2)cc1
> 35 µg/mL	NC(=O)C1CCN(c2nccc(Cl)n2)CC1
16.5 µg/mL (≈ 41.2 µM)	COc1cc(-c2ccnc3c2c(C)nn3-c2cccc(C(F)(F)F)c2)ccc1O
1.1 µg/mL (≈ 2.46 µM)	O=S(=O)(Nc1nc2ccccc2s1)c1ccc(NCc2cccc(Cl)c2O)cc1
6.13 µg/mL (≈ 13.9 µM)	COc1ccc(S(=O)(=O)N2CCOCC2)cc1NC(=O)c1cccc(-n2cccc2)c1
2.27 µg/mL (≈ 5.47 µM)	CCc1ccc2ncc(C(=O)c3ccc(C)c(C)c3)c(N3CCC(C(N)=O)CC3)c2c1
< 1 µg/mL	Fc1ccc(Nc2nc(-c3ccccc3)nc3ccccc23)cc1F
> 62 µg/mL	Cc1nc2sccn2c(=O)c1S(=O)(=O)Nc1ccc(N2CCN(C)CC2)cc1
> 59 µg/mL	CN(C)C(=O)c1nc(-c2ccc(Cl)cc2Cl)c2cnccn12
> 55 µg/mL	CN(Cc1ccccc1)C(=O)C1CCN(Cc2cccc3ccccc23)CC1
> 53 µg/mL	CC(C)CC(=O)Nc1n[nH]c2c1CN(C(=O)C1CCN(C)CC1)C2(C)C
> 72 µg/mL	CCOc1ccc(CCNC(=O)c2cc3sccc3n2CCN2CCN(C)CC2)cc1OCC
< 1 µg/mL	CC1CCC(n2c3cnccc3c3cnc(Nc4ccc5c(n4)CCN(C(=O)CO)C5)nc32)CC1 (configuration not stated)
> 84 µg/mL	C[C@@H](O)CNC(C)(C)CC(=O)N[C@@H]1CCc2ccccc2N(Cc2ccc(-c3ccccc3-c3nn[nH]n3)cc2)C1=O
1.57 µg/mL (≈ 3.18 µM)	CCOc1ccccc1C(=O)Nc1ccccc1C(=O)Nc1cccc(S(=O)(=O)C(F)(F)F)c1
35.9 µg/mL (≈ 89.6 µM)	COc1cc(C(=S)N2CCN(CCO)CC2)ccc1OCc1ccc(C)cc1
43.4 µg/mL (≈ 111 µM)	CCn1c(C)c(C(C)=O)c(C)c1C(=O)Nc1cccc([S+](=O)([O-])N(C)C)c1
> 52 µg/mL	Cn1cnc(-c2nccc3c(=O)[nH]c(OCCCC(F)(F)F)nc23)c1
< 1 µg/mL	Clc1cccc(Nc2nc(-c3ccncc3)nc3ccccc23)c1

Compound	solubility kinetic
O=C(O)c1ccnc2cc(C(OCCN3CCCCC3)c3ccccc3Cl)[nH]c12 (configuration not stated)	> 61 µg/mL
Fc1ccc(Nc2nc(C3=CCNCC3)nc3ccccc23)cc1F	> 50 µg/mL
COc1ccc(C[C@@H]2C(=O)N[C@H](C)C(=O)N(C)[C@@H]3C(=O)N(C)[C@@H](Cc4ccc(O)c(c4)Oc4ccc(cc4)[C@H]3O)C(=O)N[C@@H](C)C(=O)N[C@H](C)C(=O)N2C)cc1	96.4 µg/mL (≈ 125 µM)
